Molecules are shown by their SMILES. Structures can show the parent of a compound that is named as a salt. Where only a bound is given, the exact number is not on record here.

This note sets out measurements from patent US8853196B2, “Aminochromane, aminothiochromane and amino-1,2,3,4-tetrahydroquinoline derivatives, pharmaceutical compositions containing them, and their use in therapy” (AbbVie Deutschland GmbH & Co. KG, priority 2011, dated 2014).

For the experiment, the target named is T1, human GlyT1c transporter (Homo sapiens, UniProt P48067).
T1 construct: expressed in transfected cells; host or cells: CHO cells (recombinant; membranes)
T1 sequence (P48067 1-706): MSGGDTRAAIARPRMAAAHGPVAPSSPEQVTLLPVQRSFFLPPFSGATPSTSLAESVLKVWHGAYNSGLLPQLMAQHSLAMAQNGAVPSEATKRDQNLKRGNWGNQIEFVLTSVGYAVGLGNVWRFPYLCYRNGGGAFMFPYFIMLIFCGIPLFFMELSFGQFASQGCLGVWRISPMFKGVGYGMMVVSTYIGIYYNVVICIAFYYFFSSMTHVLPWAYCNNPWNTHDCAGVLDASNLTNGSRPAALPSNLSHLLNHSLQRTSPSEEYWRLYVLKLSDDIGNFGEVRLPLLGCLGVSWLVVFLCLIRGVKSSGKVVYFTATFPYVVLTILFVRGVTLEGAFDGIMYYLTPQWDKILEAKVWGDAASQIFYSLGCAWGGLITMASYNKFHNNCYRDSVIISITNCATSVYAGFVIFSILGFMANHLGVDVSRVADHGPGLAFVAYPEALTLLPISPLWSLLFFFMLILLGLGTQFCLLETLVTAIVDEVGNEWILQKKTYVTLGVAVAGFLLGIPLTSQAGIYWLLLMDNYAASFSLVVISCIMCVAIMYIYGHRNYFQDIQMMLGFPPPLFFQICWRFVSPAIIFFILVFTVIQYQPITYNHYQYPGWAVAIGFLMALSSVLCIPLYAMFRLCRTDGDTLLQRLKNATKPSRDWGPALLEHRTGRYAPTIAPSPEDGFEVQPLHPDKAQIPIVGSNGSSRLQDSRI
Nature of the experiment: Radioligand binding assay using recombinant CHO cell membranes expressing human GlyT1. Particulars: values given as upper bounds, read-out: radioligand binding Kiapp. The procedure: 2. Radioligand Binding Assays Using Recombinant CHO Cell Membranes Expressing Human GlyT1:
Radioligand binding to human GlyT1c transporter-expressing membranes was determined as described in Mezler et al., Molecular Pharmacology 74:1705-1715, 2008.
For the compound `Cn1cnc(S(=O)(=O)NCc2ccc3c(c2)[C@@H](Cc2ccccc2)[C@@H](NCC2CCCCC2)CO3)c1` (relative stereo) [Example 22, cis-1-Methyl-1H-imidazole-4-sulfonic acid [4-benzyl-3-(cyclohexylmethyl-amino)-chroman-6-lmethyl]-amide; trifluoro-acetic acid salt], the Ki was not above 0.01 µM.
Next, `Cn1cnc(S(=O)(=O)NCc2ccc3c(c2)[C@H](Cc2ccccc2)[C@H](NCC2CCCC2)CO3)c1` (relative stereo) [Example 40, cis-N-((-4-benzyl-3-((cyclopentylmethyl)amino)chroman-6-yl)methyl)-1-methyl-1H-imidazole-4-sulfonamide 2,2,2-trifluoroacetate]: not above 0.1 µM.
Then `CCCS(=O)(=O)NCCOc1ccc2c(c1)[C@@H](Cc1ccccc1)[C@H](NC)CO2` (relative stereo) [Example 3b, trans-N-(2-{[-4-benzyl-3-(methylamino)-3,4-dihydro-2H-chromen-6-yl]oxy}ethyl)propane-1-sulfonamide], with not above 1 µM; and `CN[C@@H]1COc2ccc(CNS(=O)(=O)CC3CC3)cc2[C@H]1Cc1ccccc1` (relative stereo) [Example 8b, trans-N-{[4-benzyl-3-(methylamino)-3,4-dihydro-2H-chromen-6-yl]methyl}-1-cyclopropylmethanesulfonamide], with not above 0.1 µM.
Then `CCS(=O)(=O)NCc1ccc2c(c1)C(Cc1ccccc1)C(NC)CO2` (single isomer, unassigned; isomer 2) [Example 79, cis-N-{[4-Benzyl-3-(methyl-amino)-3,4-dihydro-2H-chromen-6-yl]methy}ethane-sulfonamide. (Isomer 2)], with not above 0.1 µM.
As for `CCCS(=O)(=O)NCCOc1ccc2c(c1)[C@@H](Cc1ccccc1)[C@H](NC)C(C)(C)O2` (relative stereo) [Example 75, trans-Propane-1-sulfonic acid (2-(-4-benzyl-2,2-dimethyl-3-methylamino-chroman-6-yloxy)-ethyl]-amide], the Ki is not above 1 µM.
Then `CCS(=O)(=O)NCc1ccc2c(c1)[C@H](Cc1ccccc1)[C@H](NC)CO2` (relative stereo) [Example 9a, cis-N-{[4-Benzyl-3-(methylamino)-3,4-dihydro-2H-chromen-6-yl]methyl}ethanesulfonamide], with not above 0.1 µM; and `CCn1cc(S(=O)(=O)NCc2ccc3c(c2)C(Cc2ccccc2)C(N)CO3)cn1` (stereo not shown) [Example 57, 1-Ethyl-1H-pyrazole-4-sulfonic acid (3-amino-4-benzyl-chroman-6-ylmethyl)-amide 2,2,2-trifluoroacetate], with not above 1 µM.
Next, `CN[C@@H]1COc2cc(F)c(CNS(=O)(=O)c3cn(C)cn3)cc2[C@H]1Cc1ccccc1` (relative stereo) [Example 32, trans-1-Methyl-1H-imidazole-4-sulfonic acid (-4-benzyl-7-fluoro-3-methylamino-chroman-6-ylmethyl)-amide]: not above 0.01 µM.
Next, `Cn1cnc(S(=O)(=O)NCc2ccc3c(c2)[C@H](Cc2ccccc2)[C@H](N)CO3)c1` (relative stereo) [Example 12, cis-1-Methyl-1H-imidazole 4-sulfonic acid (3-amino-4-benzyl-chroman-6-ylmethyl)-amide]: not above 0.01 µM.
As to `O=S(=O)(CC1CC1)NCc1ccc2c(c1)[C@H](Cc1ccccc1)[C@H](N1CCCC1)CO2` (relative stereo) [Example 65, cis-N-(-4-Benzyl-3-pyrrolidin-1-yl-chroman-6-ylmethyl)-C-cyclopropyl-methanesulfonamide], the Ki is not above 0.01 µM.
For `NC1COc2ccc(CNS(=O)(=O)N3CCOCC3)cc2C1Cc1ccccc1` (stereo not shown) [Example 44, Morpholine-4-sulfonic acid (3-amino-4-benzyl-chroman-6-ylmethyl)-amide 2,2,2-trifluoroacetate], the Ki is not above 10 µM.
Regarding `Cc1ccc(S(=O)(=O)NCc2ccc3c(c2)C(Cc2ccccc2)C(N)CO3)o1` (stereo not shown) [Example 52, 5-Methyl-furan-2-sulfonic acid (3-amino-4-benzyl-chroman-6-ylmethyl)-amide 2,2,2-trifluoroacetate], the Ki is not above 1 µM.
With `CN[C@@H]1COc2cc(F)c(CNS(=O)(=O)c3cn(C)cn3)cc2[C@@H]1Cc1ccccc1` (relative stereo) [Example 31, cis-1-Methyl-1H-imidazole-4-sulfonic acid (-4-benzyl-7-fluoro-3-methylamino-chroman-6-ylmethyl)-amide], the Ki was not above 0.1 µM.
Consider `Cn1cnc(S(=O)(=O)NCc2ccc3c(c2)[C@H](Cc2ccccc2)[C@H](N2CCCC2)CO3)c1` (relative stereo) [Example 62, cis-1-Methyl-1H-imidazole-4-sulfonic acid (-4-benzyl-3-pyrrolidin-1-yl-chroman-6-ylmethyl)-amide], for which the Ki was not above 0.01 µM.
Then `Cn1ccc(S(=O)(=O)NCc2ccc3c(c2)C(Cc2ccccc2)C(N)CO3)n1` (stereo not shown) [Example 46, 1-Methyl-1H-pyrazole-3-sulfonic acid (3-amino-4-benzyl-chroman-6-ylmethyl)-amide 2,2,2-trifluoroacetate], with not above 1 µM.
Then `CN[C@@H]1COc2ccc(CNS(=O)(=O)c3cn(C)cn3)cc2[C@@H]1Cc1ccccc1` (relative stereo) [Example 5a, cis-1-Methyl-1H-imidazole-4-sulfonic acid (4-benzyl-3-methylamino-chroman-6-ylmethyl)-amide], with not above 0.01 µM; and `CCCS(=O)(=O)NCc1ccc2c(c1)[C@H](Cc1ccccc1)[C@H](N)CO2` (relative stereo) [Example 71, cis-Propane-1-sulfonic acid (-3-amino-4-benzyl-chroman-6-ylmethyl)-amide], with not above 0.1 µM.
Next, `CCS(=O)(=O)NCc1ccc2c(c1)[C@H](Cc1ccccc1)[C@H](N)CO2` (relative stereo) [Example 23, cis-Ethanesulfonic acid (3-amino-4-benzyl-chroman-6-ylmethyl)-amide]: not above 0.1 µM; `CN[C@@H]1COc2ccc(CNS(=O)(=O)c3cn(C)cn3)cc2[C@H]1Cc1ccccc1` (relative stereo) [Example 5b, trans-1-Methyl-1H-imidazole-4-sulfonic acid (4-benzyl-3-methylamino-chroman-6-ylmethyl)-amide]: not above 0.01 µM; `Cc1ccc(S(=O)(=O)NCc2ccc3c(c2)C(Cc2ccccc2)C(N)CO3)s1` (stereo not shown) [Example 53, 5-Methyl-thiophene-2-sulfonic acid (3-amino-4-benzyl-chroman-6-ylmethyl)-amide 2,2,2-trifluoroacetate]: not above 1 µM.
Turning to `NC1COc2ccc(CNS(=O)(=O)c3ccsc3)cc2C1Cc1ccccc1` (stereo not shown) [Example 49, Thiophene-3-sulfonic acid (3-amino-4-benzyl-chroman-6-ylmethyl)-amide 2,2,2-trifluoroacetate], the Ki was not above 1 µM.
Next, `CN[C@@H]1COc2ccc(OCCNS(=O)(=O)c3cn(C)cn3)cc2[C@H]1Cc1ccccc1` (relative stereo) [Example 2b, trans-N-(2-{[-4-benzyl-3-(methylamino)-3,4-dihydro-2H-chromen-6-yl]oxy}ethyl)-1-methyl-1H-imidazole-4-sulfonamide]: not above 0.01 µM.
Next, `CN[C@@H]1COc2ccc(CNS(=O)(=O)CC3CC3)cc2[C@@H]1Cc1ccccc1` (relative stereo) [Example 8a, cis-N-{[4-Benzyl-3-(methylamino)-3,4-dihydro-2H-chromen-6-yl]methyl}-1-cyclopropylmethanesulfonamide]: not above 0.01 µM; `Cn1cc(S(=O)(=O)NCc2ccc3c(c2)[C@H](Cc2ccccc2)[C@H](N2CCC2)CO3)cn1` (relative stereo) [Example 15, cis-1-Methyl-1H-pyrazole-4-sulfonic acid (3-azetidin-1-yl-4-benzyl-chroman-6-ylmethyl)-amide]: not above 0.01 µM.
As for `Cc1cc(S(=O)(=O)NCc2ccc3c(c2)C(Cc2ccccc2)C(N)CO3)n(C)n1` (stereo not shown) [Example 55, 2,5-Dimethyl-2H-pyrazole-3-sulfonic acid (3-amino-4-benzyl-chroman-6-ylmethyl)-amide 2,2,2-trifluoroacetate], the Ki is not above 10 µM.
Then `Cc1ncc(S(=O)(=O)NCc2ccc3c(c2)C(Cc2ccccc2)C(N)CO3)n1C` (stereo not shown) [Example 58, 2,3-Dimethyl-3H-imidazole-4-sulfonic acid (3-amino-4-benzyl-chroman-6-ylmethyl)-amide 2,2,2-trifluoroacetate], with not above 1 µM; and `Cn1cnc(S(=O)(=O)NCCOc2ccc3c(c2)C(Cc2ccccc2)C(N2CCC2)CO3)c1` (single isomer, unassigned; isomer 2) [Example 80, cis-1-Methyl-1H-imidazole-4-sulfonic acid [2-(3-azetidin-1-yl-4-benzyl-chroman-6-yloxy)-ethyl]-amide. (Isomer 2)], with not above 0.01 µM.
